B1: YGL157w: Saccharomyces cerevisiae carbonyl reductase homolog, SEQ ID NO: 17, expressed in E. coli from pSE-YGP7 (protein, listed as Saccharomyces cerevisiae)
chain: MTTDTTVFVSGATGFIALHIMNDLLKAGYTVIGSGRSQEKNDGLLKKFNNNPKLSMEIVEDIAAPNAFDEVFKKHGKEIKIVLHTASPFHFETTNFEKDLLTPAVNGTKSILEAIKKYAADTVEKVIVTSSTAALVTPTDMNKGDLVITEESWNKDTWDSCQANAVAAYCGSKKFAEKTAWEFLKENKSSVKFTLSTINPGFVFGPQMFADSLKHGINTSSGIVSELIHSKVGGEFYNYCGPFIDVRDVSKAHLVAIEKPECTGQRLVLSEGLFCCQEIVDILNEEFPQLKGKIATGEPATGPSFLEKNSCKFDNSKTKKLLGFQFYNLKDCIVDTAAQMLEVQNEA
B2: YGL039w: Saccharomyces cerevisiae carbonyl reductase homolog, SEQ ID NO: 21, expressed in E. coli from pSE-YGD9 (protein, listed as Saccharomyces cerevisiae)
chain: MTTEKTVVFVSGATGFIALHVVDDLLKTGYKVIGSGRSQEKNDGLLKKFKSNPNLSMEIVEDIAAPNAFDKVFQKHGKEIKVVLHIASPVHFNTTDFEKDLLIPAVNGTKSILEAIKNYAADTVEKVVITSSVAALASPGDMKDTSFVVNEESWNKDTWESCQANAVSAYCGSKKFAEKTAWDFLEENQSSIKFTLSTINPGFVFGPQLFADSLRNGINSSSAIIANLVSYKLGDNFYNYSGPFIDVRDVSKAHLLAFEKPECAGQRLFLCEDMFCSQEALDILNEEFPQLKGKIATGEPGSGSTFLTKNCCKCDNRKTKNLLGFQFNKFRDCIVDTASQLLEVQSKS
B3: YDR541c: Saccharomyces cerevisiae carbonyl reductase homolog, SEQ ID NO: 25, expressed in E. coli from pSE-YDR1 (protein, listed as Saccharomyces cerevisiae)
chain: MSNTVLVSGASGFIALHILSQLLKQDYKVIGTVRSHEKEAKLLRQFQHNPNLTLEIVPDISHPNAFDKVLQKRGREIRYVLHTASPFHYDTTEYEKDLLIPALEGTKNILNSIKKYAADTVERVVVTSSCTAIITLAKMDDPSVVFTEESWNEATWESCQIDGINAYFASKKFAEKAAWEFTKENEDHIKFKLTTVNPSLLFGPQLFDEDVHGHLNTSCEMINGLIHTPVNASVPDFHSIFIDVRDVALAHLYAFQKENTAGKRLVVTNGKFGNQDILDILNEDFPQLRGLIPLGKPGTGDQVIDRGSTTDNSATRKILGFEFRSLHESVHDTAAQILKKENRL

How the values were obtained:
carbonyl reductase [1] = test: Substrate specificity: NADPH-dependent reduction by the carbonyl reductase obtained in Example 1; type: biochemical, Torulaspora delbrueckii; settings: coenzyme NADPH, reduction of 3,4-dimethoxyphenylacetone regarded as 100
Description: (§1) A reaction solution comprising 50 mM potassium phosphate buffer (pH 6.5), 0.2 mM NADPH, 5 mM 3,4-dimethoxyphenylacetone, and an enzyme is reacted at 30° C. Any decrease in absorbance at 340 nm accompanying a decrease in NADPH is measured. 1U is defined as the amount of enzyme which catalyzes a 1 μmol decrease of NADPH in one minute.
(§2) The enzyme obtained in Example 1 was reacted with various ketones, ketoesters, and soon. The activities of the reduction reactions were expressed as relative activities, where the reduction of 3,4-dimethoxyphenylacetone was regarded as 100 (Table 2) (substrate specificity of carbonyl reductase). The activity of dehydrogenating 1-(3,4-dimethoxyphenyl)-2-propanol was measured as follows: A reaction was performed at 30° C. in a reaction solution comprising 50 mM Tris-HCl buffer (pH 8.5), 2.5 mM NADP^+, 5 mM 1-(3,4-dimethoxyphenyl)-2-propanol, and the enzyme. An increase in absorbance at 340 nm, accompanying NADPH production, was measured. 1 U was defined as the amount of enzyme catalyzing the production of 1 μmol NADPH per minute. In addition, the activity of reducing NADH-dependent 3,4-dimethoxyphenylacetone was measured as follows: A reaction was performed at 30° C. in a reaction solution comprising 50 mM potassium phosphate buffer (pH 6.5), 0.2 mM NADH, 5 mM 3,4-dimethoxyphenylacetone, and the enzyme, and decrease in absorbance at 340 nm, accompanying decrease in NADH, was measured. 1 U was defined as the amount of enzyme catalyzing a decrease of 1 μmol NADH per minute.

carbonyl reductase [2] = test: Activity of dehydrogenating 1-(3,4-dimethoxyphenyl)-2-propanol with NADP+; type: biochemical, Torulaspora delbrueckii; settings: substrate 5 mM, coenzyme NADP+, dehydrogenation, pH 8.5, 30° C.
Description: as §2

[3] = 3,4-dimethoxyphenylacetone-reducing activity of cell-free extracts of transformed Escherichia coli; type: biochemical, Escherichia coli JM109; settings: cell-free extracts of E. coli expressing the homolog
Description: as §1
Escherichia coli JM109 strain transformed with plasmid pSE-TDR1, which expresses carbonyl reductase, and plasmid pSG-TDR1, which coexpresses carbonyl reductase and Bacillus subtilis-derived glucose dehydrogenase, was cultured overnight at 30° C. in liquid LB medium containing ampicillin. 0.1 mM IPTG was added, and the strain was further cultured for four hours.
Cells were collected by centrifugation, and then suspended in 50 mM potassium phosphate buffer (pH 6.5) comprising 0.5 M NaCl, 0.02% 2-mercaptoethanol, 2 mM PMSF, and 10% glycerin. Cells were then disrupted by sonication, and centrifuged. The obtained supernatant was used as a cell-free extract. The 3,4-dimethoxyphenylacetone-reducing activity and glucose-dehydrogenating activity of the cell-free extract were measured. The glucose-dehydrogenating activity was measured as follows: Measurements were performed at 30° C. in a reaction solution comprising the enzyme and 100 mM potassium phosphate buffer (pH 6.5), 2.5 mM NAD^+, 100 mM glucose. 1 U was defined as the amount of enzyme to catalyze production of […] of NADH per minute under the aforementioned reaction conditions.
Escherichia coli JM109+strains comprising pSE-YGP7, pSE-YGD9, pSE-YDR1, pSG-YGP7, pSG-YGD9, or pSG-YDR1 were cultured on LB medium comprising ampicillin, induced with 0.1 mM IPTG for four hours, and then centrifuged to collect the cells.
Each of these cell samples was suspended in a cell lysis solution (50 mM KPB pH 8.0, 1 mM EDTA, 0.02% 2-mercaptoethanol, 2 mM PMSF, 10% Glycerol). The cells were ruptured by sonication and then centrifuged to obtain the supernatant, which was used as a cell-free extract.

[4] = Enzymatic synthesis of (S)-1-(3,4-dimethoxyphenyl)-2-propanol: optical purity and reaction yield; type: biochemical; settings: 0.2 U homolog enzyme, 50 mM 3,4-dimethoxyphenylacetone, overnight, 25° C., pH 6.5
Description: A reaction was performed overnight at 25° C. in 1 mL of a reaction solution comprising 200 mM potassium phosphate buffer (pH 6.5), 1 mM NADP^+, 2 U glucose dehydroganase (Wako Pure Chemical Industries, Ltd.), 250 mM glucose, 0.25 U carbonyl reductase, and 50 mM 3,4-dimethoxyphenylacetone. The optical purity of the produced (S)-1-(3,4-dimethoxyphenyl)-2-propanol was measured as follows: One mL of ethyl acetate was added to 0.5 mL of the reaction solution to extract (S)-1-(3,4-dimethoxyphenyl)-2-propanol, and the extraction solvent was desolvated. 0.5 mL of a dissolving solution (n-hexane: isopropanol=4:1) was then added to dissolve the extract, which was then analyzed by liquid chromatography using an optical resolution column. CHIRALCEL OF (4.6 mm×25 cm; Daicel Chemical Industries, Ltd.) was used as the optical resolution column. Chromatography was performed with a wavelength of 220 nm, a flow rate of 1.0 mL/min, and at 40° C. using an eluting solution of n-hexane: isopropanol=4:1.
In addition, the (S)-1-(3,4-dimethoxyphenyl)-2-propanol thus-produced was quantified using gas chromatography, and a yield relative to the raw starting material, 3,4-dimethoxyphenylacetone, was obtained. Specifically, the analysis was performed at a column temperature of 210° C., using Thermon 3000 (10%)-Chromosorb W (AW-DMCS, Mesh 60–80; 3.2 mm×210 cm) with a hydrogen flame ionization detector (FID). The resulting reaction yield was about 95%.
To prepare crude enzyme solution for enzyme reaction, the crude enzyme solution prepared in Example 18 was concentrated ten-folds using a UF membrane. This solution was reacted overnight at 25° C. in 1 mL of a reaction solution comprising 200 mM potassium phosphate buffer (pH 6.5), 1 mM NADP^+, 2 U glucose dehydrogenase (Wako Pure Chemical Industries, Ltd.), 250 mM glucose, 0.2 U homolog enzyme, and 50 mM 3,4-dimethoxyphenylacetone. Optical purity was measured and the produced (S)-1-(3,4-dimethoxyphenyl)-2-propanol was quantified as in Example 6. As a result, YGL157w (pSE-YGP7) produced 93.7% ee (S)-1-(3,4-dimethoxyphenyl)-2-propanol at a yield of 66%, YGL039w (pSE-YGD9) produced 93.6% ee at a yield of 94%, and YDR541c (pSE-YDR1) produced 94.8% ee at a yield of 6%.

Molecule	Relative activity (carbonyl reductase [1]; substrate 20 mM) [%]	further results
CC(=O)C(C)=O [2,3-Butanedione]	1480	
CC(=O)OC1CCCC1=O (centres unmarked) [2-Acetoxycyclopentanone]	567	
COC(=O)C(C)=O [Methyl pyruvate]	1320	
CCC(=O)c1ccc(OC)cc1 [4′-Methoxypropiophenone]	283	
CC(=O)CCc1ccccc1 [Benzylacetone]	739	
CC(=O)COc1ccccc1 [Phenoxy-2-propanone]	939	
COC(=O)CC(C)=O [Methyl acetoacetate]	3670	
CCOC(=O)CC(C)=O [Ethyl acetoacetate]	3170	
COCC(C)=O [Methoxyacetone]	117	
O=C(CCl)c1cccc(Cl)c1 [2-Chloro-1-(3′-chlorophenyl)ethanone]		Relative activity (carbonyl reductase [1]; substrate 2 mM): 922%
CC12CCC(C(=O)C1=O)C2(C)C (centres unmarked) [Camphorquinone]		Relative activity (carbonyl reductase [1]; substrate 1 mM): 644%
CCOC(=O)CC(=O)CCl [Ethyl 4-chloroacetoacetate]	6780	
CC(=O)OC(C)C(C)=O (centres unmarked) [2-Acetoxy-3-butanone]	589	
CC(=O)COC(C)=O [1-Acetoxy-2-propanone]	24700	
CCC(=O)C(C)=O [2,3-Pentanedione]	2590	
COC(=O)CC(=O)CCl [Methyl 4-chloroacetoacetate]	8040	
CC(=O)CC(C)=O [2,4-Pentanedione]	422	
COc1ccc(C[C@@H](C)O)cc1OC [(R)-1-(3,4-dimethoxyphenyl)-2-propanol]		Relative activity (carbonyl reductase [2]): 0.0%
COc1ccc(C[C@H](C)O)cc1OC [(S)-1-(3,4-dimethoxyphenyl)-2-propanol]		Relative activity (carbonyl reductase [2]): 0.0%
CC(=O)c1ccccc1 [Acetophenone]	256	
B1		3,4-dimethoxyphenylacetone reductase activity (in words) [3]: confirmed to comprise 3,4-dimethoxyphenylacetone reductase activity; Optical purity of the produced (S)-1-(3,4-dimethoxyphenyl)-2-propanol [4]: 93.7 % ee; Yield of (S)-1-(3,4-dimethoxyphenyl)-2-propanol [4]: 66%
B2		3,4-dimethoxyphenylacetone reductase activity (in words) [3]: confirmed to comprise 3,4-dimethoxyphenylacetone reductase activity; Optical purity of the produced (S)-1-(3,4-dimethoxyphenyl)-2-propanol [4]: 93.6 % ee; Yield of (S)-1-(3,4-dimethoxyphenyl)-2-propanol [4]: 94%
B3		3,4-dimethoxyphenylacetone reductase activity (in words) [3]: confirmed to comprise 3,4-dimethoxyphenylacetone reductase activity; Optical purity of the produced (S)-1-(3,4-dimethoxyphenyl)-2-propanol [4]: 94.8 % ee; Yield of (S)-1-(3,4-dimethoxyphenyl)-2-propanol [4]: 6%

Source: patent US7083962B2, “Carbonyl reductases, polynucleotides comprising DNA encoding the same, methods for producing the same, and methods for producing optically active alcohol utilizing the same” (Daicel Chemical Industries Ltd., priority 2004, dated 2006)
